ChEMBL document CHEMBL1201862, “PubChem BioAssay data set” (2004)
Activity calls are given as the source filed them.

Legend:
[1] = molecular target: Cytochrome P450 2C19 (Homo sapiens, UniProt P33261); experiment: Cytochrome panel assay with activity outcomes. Panel member name: p450-cyp2c19 Compounds with AC50 equal or less than 10 uM are considered active; type: functional
[2] = molecular target: T1, Streptokinase A (Streptococcus pyogenes serotype M1, UniProt P10520); experiment: S. pyogenes streptokinase expression inhibitors, potency, dose response, plasminogen activation absorbance, OD405 (AID 1914); type: functional, Streptococcus pyogenes M1 GAS;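 further: secreted streptokinase activity via plasminogen activation per viability signal from cell pellet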
T1 sequence (P10520 whole entry): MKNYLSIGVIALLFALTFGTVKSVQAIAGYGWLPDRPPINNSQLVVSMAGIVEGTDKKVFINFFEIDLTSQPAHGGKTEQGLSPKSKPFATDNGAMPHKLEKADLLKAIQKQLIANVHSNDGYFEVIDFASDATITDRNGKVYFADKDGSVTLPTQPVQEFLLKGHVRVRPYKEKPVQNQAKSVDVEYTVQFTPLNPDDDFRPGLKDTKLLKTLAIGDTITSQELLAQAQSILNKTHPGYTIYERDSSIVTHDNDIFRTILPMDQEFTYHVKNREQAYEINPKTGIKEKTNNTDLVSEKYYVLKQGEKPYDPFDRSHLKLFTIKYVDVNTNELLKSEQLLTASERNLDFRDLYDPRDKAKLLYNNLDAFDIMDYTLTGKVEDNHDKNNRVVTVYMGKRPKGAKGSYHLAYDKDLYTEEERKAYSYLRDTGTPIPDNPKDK

[3] = system: Streptococcus; experiment: Group A Streptococcus viability loss, dose response, counter-screen for streptokinase expression inhibitor project, luminescence, BacTiterGlo (AID 1915); type: functional, organism-based;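 further: potency for reduction of bacterial viability or growth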
[4] = system: Streptococcus sp. 'group A'; experiment: growth inhibition of control SK(-) GAS strain, dose response, counter-screen for streptokinase expression inhibitor project, luminescence, kanamycin, BacTiterGlo, confirmation (AID 1900); type: functional, organism-based
[5] = inhibitors of intracellular T. cruzi replication, confirmation, NIH3T3 host cells, beta-gal luminescence (AID 2044); type: functional, cell-based;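 further: intracellular parasites grown in NIH/3T3 mouse fibroblasts as host cells; luminescent beta-galactosidase reporter signal from transgenic T. cruzi replicating inside host cells; inhibitors lower the luminescence signal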
[6] = cytotoxicity toward NIH3T3 fibroblasts, dose response, counter-screen, cell-based, ATP luminescence, mouse fibroblasts (AID 2010); type: functional;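 further: cells exposed to compound for about 90 hours before reading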

Cytochrome P450 2C19, sequence (P33261 whole entry): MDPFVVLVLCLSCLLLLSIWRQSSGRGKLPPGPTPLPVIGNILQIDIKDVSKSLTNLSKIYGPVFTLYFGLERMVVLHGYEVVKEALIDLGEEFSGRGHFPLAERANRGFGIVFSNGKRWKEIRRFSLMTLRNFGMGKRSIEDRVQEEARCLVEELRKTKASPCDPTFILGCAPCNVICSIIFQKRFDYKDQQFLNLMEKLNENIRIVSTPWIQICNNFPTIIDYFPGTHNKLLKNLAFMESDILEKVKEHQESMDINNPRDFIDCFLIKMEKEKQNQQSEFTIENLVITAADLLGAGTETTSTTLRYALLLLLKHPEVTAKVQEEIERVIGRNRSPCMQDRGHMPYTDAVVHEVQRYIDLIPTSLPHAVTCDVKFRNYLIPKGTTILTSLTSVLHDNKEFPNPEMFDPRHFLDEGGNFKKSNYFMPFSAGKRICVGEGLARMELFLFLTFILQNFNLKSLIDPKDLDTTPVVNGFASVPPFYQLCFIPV

Row | SMILES | EC50 [3] | EC50 [4] | EC50 [5] | EC50 [6] | also measured
1 | c1ccc(C2CCC(N3CCC(N4CCCCC4)CC3)CC2)cc1 (stereo not given) |  |  |  |  | AC50 ([1]; read-out: AC50): 31.6 µM (inconclusive)
2 | O=C(O)CC/C(=C\c1cc2c(cc1Br)OCO2)c1nc2ccccc2s1 | > 150 µM (not active) | 5.71 µM (active) |  |  | EC50 [2]: 56 µM (active)
3 | Cc1ccccc1N1CCN(S(=O)(=O)c2nnc(NC(=O)c3ccco3)s2)CC1 | 41.7 µM (active) | 11 µM (active) |  |  | EC50 [2]: 5.16 µM (active)
4 | CC(C)C[C@@H](C(=O)NC1CCN(Cc2ccccc2)CC1)N1C(=O)N2CCc3c([nH]c4ccccc34)[C@@]2(C)C1=O |  |  | 6.88 µM (active) | 5.05 µM (active) | 
5 | COc1cccc(C(Nc2ccccn2)c2c(NC(=O)c3ccco3)sc(C)c2C)c1 (stereo not given) |  |  | 2.53 µM (active) | > 60 µM (not active) | 
6 | Cc1cccc(CSC2=NCCN2S(=O)(=O)c2ccc(F)cc2)c1 | > 150 µM (not active) | 41.8 µM (active) |  |  | EC50 [2]: 23.2 µM (active)
7 | CCOc1ccc(CCNC(=O)C(CC)n2nc(C)n3c(cc4sccc43)c2=O)cc1OCC (stereo not given) |  |  | 1.31 µM (active) | > 60 µM (not active) | 
8 | Cn1c(=O)c2nc(CCCCc3nc4c(=O)n(C)c(=S)n(C)c4[nH]3)[nH]c2n(C)c1=S |  |  |  |  | AC50 [1]: inconclusive
9 | CN(CCOc1ccccc1)CC(=O)Nc1ccc(S(=O)(=O)N2CCCC2)cc1 |  |  | 0.695 µM (active) | > 60 µM (not active) | 
10 | CCOc1ccc2oc(C(=O)NC3CCN(Cc4ccccc4)CC3)c(C)c2c1 |  |  | 2 µM (active) | > 60 µM (not active) | 
11 | Cc1ccc(S(=O)(=O)NCc2cccc([N+](=O)[O-])c2)cc1 |  |  |  |  | AC50 ([1]; read-out: AC50): 2.51 µM (inconclusive)
12 | CC(NCc1ccncc1)C12CC3CC(CC(C3)C1)C2 (stereo not given) |  |  | > 60 µM (not active) | > 60 µM (not active) | 
13 | C#C[C@]1(O)CC[C@@H]2[C@H]3CCc4cc(OC)ccc4[C@@H]3CC[C@@]21C |  |  |  |  | AC50 ([1]; read-out: AC50): 1.26 µM (inconclusive)
14 | CC[C@H]1C2=C3C(CC[C@H]4C(OCc5ccc(F)cc5C(F)(F)F)OC[C@](C)([C@@H]34)N(C(=O)OC(C)(C)C)C2)C2COC(=O)OCC21 (stereo not given in full) |  |  |  |  | AC50 ([1]; read-out: AC50): 39.8 µM (inconclusive)
15 | OC(CN1CCN(Cc2ccccc2)CC1)c1ccc(Br)cc1 (stereo not given) |  |  | 0.324 µM (active) | 10 µM (active) | 
16 | Cc1ccc(C(=O)Nc2nc(-c3ccccc3)c(-c3ccccc3)o2)cc1 | 2.36 µM (active) | 1.27 µM (active) | 2.48 µM (active) | > 60 µM (not active) | 
17 | Cc1c(C(=O)N2CCN(S(=O)(=O)c3ccc(F)cc3)CC2)oc2ccccc12 |  |  | 0.447 µM (active) | > 60 µM (not active) | 
18 | COC(=O)NCC(c1cccnc1)N1CCN(c2ccccc2OC)CC1 (stereo not given) |  |  |  |  | AC50 ([1]; read-out: AC50): 11.2 µM (inconclusive)
19 | CC(C)C(NC(=O)C(c1ccccc1)c1ccccc1)c1nc2ccccc2[nH]1 (stereo not given) | 16 µM (active) | 1.87 µM (active) |  |  | EC50 [2]: > 150 µM (not active)
20 | COc1ccc(C(=O)NNC(=S)NC(=O)c2ccco2)cc1 | 12 µM (active) | 2.98 µM (active) |  |  | EC50 [2]: > 150 µM (not active)
21 | CCCCN(CCCC)c1cc(C)nc(-c2ccccc2O)n1 | > 150 µM (not active) | 19.7 µM (active) |  |  | EC50 [2]: 5.4 µM (active)
22 | CCCC[C@@H]1C[C@H]1C(NC(=O)c1cccs1)c1ccc(C(F)(F)F)cc1 (stereo not given in full) |  |  |  |  | AC50 [1]: inconclusive
23 | Cc1cc(Cl)c(OCCOCCN2CCCC(C)C2)c(Br)c1 (stereo not given) |  |  | 0.393 µM (active) | > 60 µM (not active) | 
24 | CN(C)CCCOc1ccc(Cl)cc1Br |  |  | 0.535 µM (active) | > 60 µM (not active) | 
25 | O=C(COc1ccccc1)Nc1nnc(-c2ccccc2Cl)o1 | > 150 µM (not active) | > 150 µM (not active) |  |  | EC50 [2]: > 150 µM (not active)
26 | COc1ccccc1N=C(S)N(Cc1ccc(C)cc1)Cc1ccccn1 |  |  | 1.55 µM (active) | > 60 µM (not active) | 
27 | CN(C)CCCNC(=O)c1cc2c3ccccc3n(C)c2s1 |  |  | 0.136 µM (active) | > 60 µM (not active) | 
28 | COC(=O)N1CCC2(CCN(C(=O)Nc3cccc(F)c3)CC2)CC1 |  |  |  |  | AC50 ([1]; read-out: AC50): 5.01 µM (inconclusive)
29 | Cc1cc(C)n2nc(SCC(=O)N/N=C/c3ccccc3F)nc2n1 |  |  |  |  | AC50 ([1]; read-out: AC50): 20 µM (inconclusive)
30 | CC1(C)S[C@@H]2[C@H](NC(=O)C(NC(=O)N3CCNC3=O)c3ccccc3)C(=O)N2[C@H]1C(=O)O (stereo not given in full) | < 0.06 µM (active) | < 0.06 µM (active) |  |  | 
